# Source: ChEMBL document CHEMBL3400006, “Improving the passive permeability of macrocyclic peptides: Balancing permeability with other physicochemical properties” (Bioorg Med Chem, 2015)
# Square brackets hold non-standard residues; d marks the D form. Peptide text beside a SMILES is read from it. 2Pal = N[C@@H](Cc1ccccn1)C(=O)O; 4Pal = N[C@@H](Cc1ccncc1)C(=O)O
# How the values were obtained:
# [1] = Lipophilicity, log D of the compound at pH 7.4 by ChromlogD analysis; assay type: physicochemical; details: buffer
# [2] = Solubility of the compound in phosphate buffer at pH 7.4 by chemi-luminescent nitrogen detection method; assay type: physicochemical
# [3] = Permeability of the compound at donor pH 7.4 and acceptor pH 7.4 after 3 hrs incubation by PAMPA analysis; assay type: ADME; details: read-out: permeability
chromatographic logD [1],solubility [2] [µM],Papp at 3 h [3] [×10⁻⁶ cm/s],SMILES
5.53,170,–,CC(C)C[C@@H]1NC(=O)[C@H](Cc2ccc(O)cc2)NC(=O)[C@@H]2CCCN2C(=O)[C@H](CC(C)C)NC(=O)[C@H](CC(C)C)NC(=O)[C@@H](CC(C)C)NC1=O
5.57,248,–,CC(C)C[C@@H]1NC(=O)[C@@H](CC(C)C)NC(=O)[C@@H](CC(C)C)NC(=O)[C@H](Cc2ccc(O)cc2)NC(=O)[C@H]2CCCN2C(=O)[C@@H](CC(C)C)NC1=O
6.19,192,14.4,CC(C)C[C@@H]1NC(=O)[C@@H](CC(C)C)N(C)C(=O)[C@H](CC(C)C)NC(=O)[C@H](Cc2ccc(O)cc2)NC(=O)[C@@H]2CCCN2C(=O)[C@H](CC(C)C)NC1=O
7.52,103,34.7,CC(C)C[C@@H]1NC(=O)[C@H](Cc2ccc(O)cc2)NC(=O)[C@@H]2CCCN2C(=O)[C@H](CC(C)C)NC(=O)[C@H](CC(C)C)N(C)C(=O)[C@@H](CC(C)C)N(C)C1=O
8.32,53.7,–,CC(C)C[C@@H]1NC(=O)[C@H](Cc2ccc(O)cc2)N(C)C(=O)[C@@H]2CCCN2C(=O)[C@H](CC(C)C)NC(=O)[C@H](CC(C)C)N(C)C(=O)[C@@H](CC(C)C)N(C)C1=O
6.56,78,35,CC(C)C[C@@H]1NC(=O)[C@H](Cc2ccc(O)cc2)NC(=O)[C@@H]2CCCN2C(=O)[C@H](CC(C)C)NC(=O)[C@](C)(CC(C)C)NC(=O)[C@@H](CC(C)C)NC1=O
6.11,148,17,CC(C)C[C@@H]1NC(=O)[C@@H](CC(C)C)NC(=O)[C@](C)(CC(C)C)NC(=O)[C@H](Cc2ccc(O)cc2)NC(=O)[C@@H]2CCCN2C(=O)[C@H](CC(C)C)NC1=O
5.98,51.7,13,CC(C)C[C@@H]1NC(=O)[C@@H](CC(C)C)NC(=O)[C@H](CC(C)C)NC(=O)[C@@H](CC(C)C)NC(=O)[C@H](Cc2ccc(O)cc2)NC(=O)[C@@H]2CCCN2C(=O)[C@H](CC(C)C)NC1=O
6.65,102,30.3,CC(C)C[C@@H]1NC(=O)[C@@H](CC(C)C)NC(=O)[C@H](CC(C)C)NC(=O)[C@@](C)(CC(C)C)NC(=O)[C@H](Cc2ccc(O)cc2)NC(=O)[C@@H]2CCCN2C(=O)[C@H](CC(C)C)NC1=O
6.88,122,18.5,CC(C)C[C@@H]1NC(=O)[C@@H](CC(C)C)NC(=O)[C@H](Cc2ccc(O)cc2)NC(=O)[C@@H]2CCCN2C(=O)[C@H](CC(C)C)NC(=O)[C@](C)(CC(C)C)NC(=O)[C@@H](CC(C)C)NC1=O
7.21,28.5,30,CC(C)C[C@@H]1NC(=O)[C@@H](CC(C)C)NC(=O)[C@H](CC(C)C)NC(=O)[C@@](C)(CC(C)C)NC(=O)[C@@H](Cc2ccc(O)cc2)NC(=O)[C@@H]2CCCN2C(=O)[C@H](CC(C)C)NC1=O
4.65,372,< 0.65,CC(C)C[C@@H]1NC(=O)[C@@H](CC(C)C)NC(=O)[C@H]([C@@H](C)O)NC(=O)[C@H](Cc2ccc(O)cc2)NC(=O)[C@@H]2CCCN2C(=O)[C@H](CC(C)C)NC1=O
4.2,371,1.05,CC(C)C[C@@H]1NC(=O)[C@@H](CC(C)C)NC(=O)[C@@H]([C@H](C)O)NC(=O)[C@H](Cc2ccc(O)cc2)NC(=O)[C@@H]2CCCN2C(=O)[C@H](CC(C)C)NC1=O
5.07,324,–,CC(C)C[C@@H]1NC(=O)[C@H](CC(C)C)NC(=O)[C@@H](CC(C)C)NC(=O)[C@H](Cc2ccc(O)cc2)NC(=O)[C@@H]2CCCN2C(=O)[C@H](CC(C)C)NC1=O
6.05,206,20,CC(C)C[C@@H]1NC(=O)[C@H](Cc2ccc(O)cc2)NC(=O)[C@@H]2CCCN2C(=O)[C@H](CC(C)C)NC(=O)[C@H](CC(C)C)NC(=O)[C@H](Cc2ccccc2)NC1=O (cyclo(FLLPYL))
4.75,485,1.35,CC(C)C[C@@H]1NC(=O)[C@H](Cc2ccc(O)cc2)NC(=O)[C@@H]2CCCN2C(=O)[C@H](CC(C)C)NC(=O)[C@H](CC(C)C)NC(=O)[C@H](Cc2ccccn2)NC1=O (cyclo([2Pal]LLPYL))
4.45,451,< 0.65,CC(C)C[C@@H]1NC(=O)[C@H](Cc2ccc(O)cc2)NC(=O)[C@@H]2CCCN2C(=O)[C@H](CC(C)C)NC(=O)[C@H](CC(C)C)NC(=O)[C@H](Cc2ccncc2)NC1=O (cyclo([4Pal]LLPYL))
